The source of these data is patent US20170348306A1, “METHODS OF TREATING CANCER” (GLAXOSMITHKLINE LLC, priority 2011, published 2017).

Common to all, as to experiment: Cell proliferation assay (6 days, CellTiter-Glo)
Common to all, as to assay type: cell-based
Background: ATP-based viability assays read luminescence as a measure of living cells.

Assay [1] deals with BC-3. The note with it: Homo sapiens, 144 h, PEL, AIDS-BCBL, EZH2 D185H (HET), read-out: AVERAGE GROWTH IC50. The source says: (§1) Thus, Example 22 and Table 6 better reflect the inhibition of HZH2 inhibitors on cell lines, e.g. the lymphoma cell lines. DLBCL cell lines were the most sensitive to EZH2 inhibition (FIG. 11a). […] Evaluation of GSK126 in additional lymphoma cell lines and extensive genomic and epigenomic characterization will be required to fully elucidate the determinants of sensitivity among lymphoma subtypes.
(§2) Biochemical assays utilized the 5-member PRC2 complex (human Flag-EZH2, EED, SUZ12, AEBP2, RbAp48) containing either WT or mutant EZH2, [^3H-]SAM and the indicated peptide substrate; reactions were incubated for 30 minutes. Global histone modification levels were determined by ELISA or western blot methods using antibodies specific for total histone H3, H3K27me1, H3K27me2, or H3K27me3. Cell proliferation and Caspase-3/7 activity were assessed using CellTiter-Glo and Caspase-Glo 3/7 (Promega), respectively. Gene expression profiling was conducted using Affymetrix Human Genome U133 Plus 2.0 microarrays. Differentially-expressed probe sets were determined by fitting the data to a linear model using the limma statistical package (http://www.bioconductor.org) and carrying out pair-wise contrasts of treated versus control. Significant probe sets were filtered for detection (log2 signal threshold of 8), an average fold-change >2 or <−2, or >1.5 or <−1.5, where indicated, with p-values adjusted for multiple testing correction by FDR (Benjamini Hochberg)<0.1. H3K27me3 ChIP reads were aligned using Bowtie (56). H3K27me3 enrichment peaks were identified using SICER (57) with optimized parameters. A custom PERL script was utilized to quantify the average basal H3K27me3 ChIP-seq tag density across gene sets. All in vivo studies were conducted after review by the Institutional Animal Care and Use Committee at GSK and in accordance with the GSK Policy on the Care, Welfare and Treatment of Laboratory Animals. GSK126 and vehicle were administered to mice intraperitoneally. Two-tailed t-tests were conducted assuming two samples of equal variance.
(§3) The optimal cell seeding was determined empirically for all cell lines by examining the growth of a wide range of seeding densities in a 384-well format to identify conditions that permitted proliferation for 6 days. […] Plates were incubated for 6 days at 37° C. in 5% CO2. Cells were then lysed with CellTiter-Glo (Promega) and chemiluminescent signal was detected with a TECAN Safire2 microplate reader. In addition, an untreated plate of cells was harvested at the time of compound addition (T0) to quantify the starting number of cells. CTG values obtained after the 6 day treatment were expressed as a percent of the T0 value and plotted against compound concentration.

The test system of assay [2] is HS-SULTAN. The note with it: Homo sapiens, 144 h, BURKITT, EZH2 WT, read-out: AVERAGE GROWTH IC50.
Description: as §1, §2, §3

Assay [3] concerns HT. The note with it: Homo sapiens, 144 h, DLBCL, EZH2 WT, read-out: AVERAGE GROWTH IC50.
Description: as §1, §2, §3

The subject of assay [4] is Jiyoye. As to conditions: Homo sapiens, 144 h.
Description: as §1, §2, §3

For assay [5], the system named is KARPAS-1106P. The note with it: Homo sapiens, 144 h, MLBCL, EZH2 E744A (HET), read-out: AVERAGE GROWTH IC50.
Description: as §1, §2, §3

The test system of assay [6] is L-428. As to conditions: Homo sapiens, 144 h, HODGKIN'S, EZH2 Y641S (HET), read-out: AVERAGE GROWTH IC50.
Description: as §1, §2, §3

Assay [7] relates to MC116. The note with it: Homo sapiens, 144 h, B-NHL, EZH2 WT, read-out: AVERAGE GROWTH IC50.
Description: as §1, §2, §3

Assay [8] relates to MHH-PREB-1. The note with it: Homo sapiens, 144 h, B-NHL, EZH2 WT, read-out: AVERAGE GROWTH IC50.
Description: as §1, §2, §3

The test system of assay [9] is OCI-LY-19. As to conditions: Homo sapiens, OCI-LY19, 144 h, DLBCL, EZH2 WT, read-out: AVERAGE GROWTH IC50.
Description: as §1, §2, §3

The test system of assay [10] is P3HR-1. The note with it: Homo sapiens, 144 h, BURKITT, EZH2 WT, read-out: AVERAGE GROWTH IC50.
Description: as §1, §2, §3

The test system of assay [11] is RC-K8. As to conditions: Homo sapiens, RCK8, 144 h, B-NHL, EZH2 D185H (HET), read-out: AVERAGE GROWTH IC50.
Description: as §1, §2, §3

The test system of assay [12] is RPMI-6666. As to conditions: Homo sapiens, 144 h, HODGKIN'S, EZH2 WT, read-out: AVERAGE GROWTH IC50.
Description: as §1, §2, §3

Assay [13] has as its system Raji. As to conditions: Homo sapiens, 144 h, BURKITT, EZH2 WT, read-out: AVERAGE GROWTH IC50.
Description: as §1, §2, §3

In assay [14] the test system is SU-DHL-16. The note with it: Homo sapiens, 144 h, B-NHL, EZH2 D185H (HET), read-out: AVERAGE GROWTH IC50.
Description: as §1, §2, §3

The subject of assay [15] is SU-DHL-4. As to conditions: Homo sapiens, 144 h, DLBCL, EZH2 Y641S (HET), Y661N (HET), read-out: AVERAGE GROWTH IC50.
Description: as §1, §2, §3

Assay [16] has as its system SU-DHL-5. The note with it: Homo sapiens, 144 h, DLBCL, EZH2 WT, read-out: AVERAGE GROWTH IC50.
Description: as §1, §2, §3

Assay [17] deals with SU-DHL-8. The note with it: Homo sapiens, 144 h, DLBCL, EZH2 WT, read-out: AVERAGE GROWTH IC50.
Description: as §1, §2, §3

For assay [18], the system named is U-698-M. As to conditions: Homo sapiens, 144 h, B-NHL, EZH2 WT, read-out: AVERAGE GROWTH IC50.
Description: as §1, §2, §3

The subject of assay [19] is WILL-2. The note with it: Homo sapiens, 144 h, DLBCL, EZH2 WT, read-out: AVERAGE GROWTH IC50.
Description: as §1, §2, §3

Assay [20] has as its system WSU-DLCL2. As to conditions: Homo sapiens, WSUDLCL2, 144 h, DLBCL, EZH2 Y641F (HET), read-out: AVERAGE GROWTH IC50.
Description: as §1, §2, §3

The subject of assay [21] is WSU-FSCCL. The note with it: Homo sapiens, 144 h, FL, EZH2 D185H (HET), read-out: AVERAGE GROWTH IC50.
Description: as §1, §2, §3

Like-named read-outs stand apart in the source and are kept apart here.

Turning to `CC[C@H](C)n1cc(C)c2c(C(=O)NCc3c(C)cc(C)[nH]c3=O)cc(-c3ccc(N4CCNCC4)nc3)cc21` [GSK126], the half-inhibitory concentration (IC50) amounted to 2.22 µM in [1]; 2.27 µM in assay [2]; 0.516 µM in assay [3]; 0.232 µM in assay [4] (JIYOYE, BURKITT, EZH2 WT, read-out: AVERAGE GROWTH IC50); 0.23 µM in [4] (Jiyoye, BL cell line with WT EZH2, read-out: growth IC50); 4.54 µM in assay [5]. The IC50 came to 4.7 µM in assay [6]; 10.2 µM in assay [7]; 5.3 µM in [8]; 1.02 µM in [9]; 3.21 µM in assay [10]; 4.53 µM in assay [11]. For the same compound, the IC50 in assay [12] stood at 1.43 µM; in assay [13] it was 7.87 µM; in assay [14], 3.28 µM; in assay [15], 4.83 µM; in assay [16] it was 2.3 µM; in [17], 3.19 µM. For the same compound, the IC50 in assay [18] stood at 5.6 µM; in assay [19], 27.5 µM; in assay [20] it was 0.134 µM; in assay [21], 12 µM.

The term IC50 denotes the concentration at which inhibition is half-maximal.
